PMC7468576 (Acta Pharmacologica Sinica, 2019)

What was measured:
[1] = target: human IDO1 in HEK 293 cells (Homo sapiens, UniProt P14902); experiment: Cell-based assay of IDO1 activity; conditions: for inhibition of the cellular activity of IDO1: HEK 293 cells overexpressing human IDO1, kynurenine released, Fig. 2c
IDO1 [2] = target: T1, IDO1 (Homo sapiens, UniProt P14902); experiment: biochemical; conditions: for mode of inhibition: L-tryptophan 7.5 μM to 30 μM, Fig. 4
[3] = target: human TDO2 in HEK 293 cells (Homo sapiens, UniProt P48775); experiment: Cell-based assay of TDO2 activity
[4] = target: rhTDO2 (purified TDO2 enzyme) (Homo sapiens, UniProt P48775); experiment: Enzymatic assay of TDO2; type: biochemical
[5] = target: recombinant human IDO1 (rhIDO1) (Homo sapiens, UniProt P14902); experiment: Enzymatic assay of IDO1; type: biochemical
Chain of recombinant human IDO1 (rhIDO1) (P14902 whole entry): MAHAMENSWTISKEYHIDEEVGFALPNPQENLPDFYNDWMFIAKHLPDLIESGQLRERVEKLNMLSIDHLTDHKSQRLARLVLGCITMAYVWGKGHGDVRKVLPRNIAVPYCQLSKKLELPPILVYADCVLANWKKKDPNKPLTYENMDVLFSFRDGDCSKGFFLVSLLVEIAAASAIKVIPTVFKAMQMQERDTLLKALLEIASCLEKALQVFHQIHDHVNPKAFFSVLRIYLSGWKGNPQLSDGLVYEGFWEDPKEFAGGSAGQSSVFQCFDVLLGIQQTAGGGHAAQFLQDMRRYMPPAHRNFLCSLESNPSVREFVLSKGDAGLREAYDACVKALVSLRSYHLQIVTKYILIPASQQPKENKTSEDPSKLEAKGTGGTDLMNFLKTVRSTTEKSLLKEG

HEK 293 cells = experiment: Cell viability assay; type: cell-based, human; conditions: conditions used for the kynurenine assay
IDO1 [6] = target: T1, IDO1; experiment: IDO1 absorbance spectra; type: binding; conditions: compound 20 μM, rhIDO1 3 μM; for absorbance of ferric-IDO1 at 404 nm: compared with control; for absorbance of ferrous-IDO1 at 428 nm: sodium dithionite

T1 sequence (P14902 whole entry): as above
Chain of human IDO1 in HEK 293 cells (P14902 whole entry): as above

| Compound | IC50 [1] [nM] | inhibition of the cellular activity of IDO1 [1] [%] | Ki (IDO1 [2]) [nM] | mode of inhibition (IDO1 [2]) | IC50 [3] [nM] | IC50 [4] [nM] | IC50 [5] [nM] | effect on cell viability (CCK8) (HEK 293 cells) | absorbance of ferric-IDO1 at 404 nm (IDO1 [6]) | absorbance of ferrous-IDO1 at 428 nm (IDO1 [6]) | inhibition at 20 µM ([5]; read-out: IDO1 inhibitory activity of tanshinone derivatives) [%] |
| --- | --- | --- | --- | --- | --- | --- | --- | --- | --- | --- | --- |
| Cc1cccc2c3c(ccc12)C1=C(C(=O)C3=O)[C@@H](C)CO1 [Compound 8, dihydrotanshinone I] | 25700 | 83.6 | 2800 | uncompetitive inhibition | 13300 | 5100 | 2800 | no effect on cell viability | decreased | remained unchanged | – |
| C[C@H]1COC2=C1C(=O)C(=O)c1c2ccc2c1CCCC2(C)C [Compound B06F5, cryptotanshinone] | – | – | – | – | – | – | – | – | – | – | > 40 |
| CC(C)=CC[C@@H](O)C1=CC(=O)c2c(O)ccc(O)c2C1=O [Compound 7, shikonin] | 2200 | 101.8 | 1400 | uncompetitive inhibition | 1400 | 5050 | 980 | slightly reduced cell viability | decreased | remained unchanged | – |
